Laboratory results from US8314121B2, “Imidazolone derivatives, preparation thereof as drugs, pharmaceutical compositions, and use thereof as protein kinase inhibitors, in particular CDC7” (Sanofi, priority 2006, dated 2012).

SMILES | melting point [°C]
CC(C)CC1=N/C(=C\c2c[nH]c3ncccc23)C(=O)N1 [Example 74, (5Z)-2-(2-methylpropyl)-5-(1H-pyrrolo[2,3-b]pyridin-3-ylmethylidene)-3,5-dihydro-4H-imidazol-4-one] | 292 to 293
CC(C)CCC1=N/C(=C\c2c[nH]c3ncccc23)C(=O)N1 [Example 68, (5Z)-2-(3-methylbutyl)-5-(1H-pyrrolo[2,3-b]pyridin-3-ylmethylidene)-3,5-dihydro-4H-imidazol-4-one] | 274
CN1C(=O)/C(=C/c2c[nH]c3ncccc23)N=C1C1CCCCC1 [Example 70, (5Z)-2-cyclohexyl-3-methyl-5-(1H-pyrrolo[2,3-b]pyridin-3-ylmethylidene)-3,5-dihydro-4H-imidazol-4-one] | 261 to 262
O=C1NC(C2CCOCC2)=N/C1=C\c1c[nH]c2ncccc12 [Example 71, (5Z)-5-(1H-pyrrolo[2,3-b]pyridin-3-ylmethylidene)-2-(tetrahydro-2H-pyran-4-yl)-3,5-dihydro-4H-imidazol-4-one] | 317 to 319
CC(C)CC1=N/C(=C\c2c[nH]c3ncccc23)C(=O)N1C [Example 75, (5Z)-3-methyl-2-(2-methylpropyl)-5-(1H-pyrrolo[2,3-b]pyridin-3-ylmethylidene)-3,5-dihydro-4H-imidazol-4-one] | 201
CN(Cc1ccccn1)C1=N/C(=C\c2c[nH]c3ncc(Cl)cc23)C(=O)N1 [Example 96, (5Z)-5-[(5-chloro-1H-pyrrolo[2,3-b]pyridin-3-yl)methylidene]-2-[methyl(pyridin-2-ylmethyl)amino]-3,5-dihydro-4H-imidazol-4-one] | 350
O=C1NC(SCc2ccccc2)=N/C1=C\c1c[nH]c2ncc(Cl)cc12 [Example 61, (5Z)-2-(benzylsulphanyl)-5-[(5-chloro-1H-pyrrolo[2,3-b]pyridin-3-yl)methylidene]-3,5-dihydro-4H-imidazol-4-one] | 313 to 315
CN(C)C1=N/C(=C\c2c[nH]c3ncc(Cl)cc23)C(=O)N1 [Example 32, (5Z)-5-[(5-chloro-1H-pyrrolo[2,3-b]pyridin-3-yl)methylidene]-2-(dimethylamino)-3,5-dihydro-4H-imidazol-4-one] | 350
CC(C)C1=N/C(=C\c2c[nH]c3ncccc23)C(=O)N1C [Example 81, (5Z)-3-methyl-2-(1-methylethyl)-5-(1H-pyrrolo[2,3-b]pyridin-3-ylmethylidene)-3,5-dihydro-4H-imidazol-4-one] | 222 to 224
Cc1cnc2[nH]cc(/C=C3\N=C(NCC(C)C)NC3=O)c2c1 [Example 44, (5Z)-2-[(2-methylpropyl)amino]-5-[(5-methyl-1H-pyrrolo[2,3-b]pyridin-3-yl)methylidene]-3,5-dihydro-4H-imidazol-4-one] | 338 to 339
CCCSC1=N/C(=C\c2c[nH]c3ncc(Cl)cc23)C(=O)N1 [Example 62, (5Z)-5-[(5-chloro-1H-pyrrolo[2,3-b]pyridin-3-yl)methylidene]-2-(propylsulphanyl)-3,5-dihydro-4H-imidazol-4-one] | 316 to 318
O=C1NC(N2CCOCC2)=N/C1=C\c1c[nH]c2ncc(-c3ccccc3)cc12 [Example 39, (5Z)-2-morpholin-4-yl-5-[(5-phenyl-1H-pyrrolo[2,3-b]pyridin-3-yl)methylidene]-3,5-dihydro-4H-imidazol-4-one] | 361
COc1cnc2[nH]cc(/C=C3\N=C(NCC4CC4)NC3=O)c2c1 [Example 34, (5Z)-2-[(cyclopropylmethyl)amino]-5-[(5-methoxy-1H-pyrrolo[2,3-b]pyridin-3-yl)methylidene]-3,5-dihydro-4H-imidazol-4-one] | 280 to 286
O=C1/C(=C/c2c[nH]c3ncc(Cl)cc23)N=C(Oc2ccccc2)N1c1ccccc1 [Example 97, (5Z)-5-[(5-chloro-1H-pyrrolo[2,3-b]pyridin-3-yl)methylidene]-2-phenoxy-3-phenyl-3,5-dihydro-4H-imidazol-4-one] | 287
CN(Cc1ccccc1)C1=N/C(=C\c2c[nH]c3ncc(Cl)cc23)C(=O)N1 [Example 93, (5Z)-2-[benzyl(methyl)amino]-5-[(5-chloro-1H-pyrrolo[2,3-b]pyridin-3-yl)methylidene]-3,5-dihydro-4H-imidazol-4-one] | 310
O=C1NC(N2CCCC2)=N/C1=C\c1c[nH]c2ncc(Cl)cc12 [Example 27, (5Z)-5-[(5-chloro-1H-pyrrolo[2,3-b]pyridin-3-yl)methylidene]-2-pyrrolidin-1-yl-3,5-dihydro-4H-imidazol-4-one] | 350 to 360
O=C1NC(N2CCCCCC2)=N/C1=C\c1c[nH]c2ncc(Cl)cc12 [Example 25, (5Z)-2-azepan-1-yl-5-[(5-chloro-1H-pyrrolo[2,3-b]pyridin-3-yl)methylidene]-3,5-dihydro-4H-imidazol-4-one] | 310 to 320
CC(C)SC1=N/C(=C\c2c[nH]c3ncc(Cl)cc23)C(=O)N1 [Example 63, (5Z)-5-[(5-chloro-1H-pyrrolo[2,3-b]pyridin-3-yl)methylidene]-2-((1-methyl)ethylsulphanyl)-3,5-dihydro-4H-imidazol-4-one] | 291 to 293

SMILES | melting point [°C]
CC(C)CNC1=N/C(=C\c2c[nH]c3ncc(Cl)cc23)C(=O)N1 [Example 29, (5Z)-5-[(5-chloro-1H-pyrrolo[2,3-b]pyridin-3-yl)methylidene]-2-[(2-methylpropyl)amino]-3,5-dihydro-4H-imidazol-4-one] | 325 to 330
CCCCC1=N/C(=C\c2c[nH]c3ncccc23)C(=O)N1C [Example 66, (5Z)-2-butyl-3-methyl-5-(1H-pyrrolo[2,3-b]pyridin-3-ylmethylidene)-3,5-dihydro-4H-imidazol-4-one] | 220 to 222
CC(C)C1=N/C(=C\c2c[nH]c3ncccc23)C(=O)N1 [Example 79, (5Z)-2-(1-methylethyl)-5-(1H-pyrrolo[2,3-b]pyridin-3-ylmethylidene)-3,5-dihydro-4H-imidazol-4-one] | 309 to 310
CC(C)CC1=N/C(=C\c2c[nH]c3ncc(Cl)cc23)C(=O)N1C [Example 76, (5Z)-5-[(5-chloro-1H-pyrrolo[2,3-b]pyridin-3-yl)methylidene]-3-methyl-2-(2-methylpropyl)-3,5-dihydro-4H-imidazol-4-one] | 282
O=C1NC(NCC2CC2)=N/C1=C\c1c[nH]c2ncc(N3CCOCC3)cc12 [Example 51, (5Z)-2-[(cyclopropylmethyl)amino]-5-[(5-morpholin-4-yl-1H-pyrrolo[2,3-b]pyridin-3-yl)methylidene]-3,5-dihydro-4H-imidazol-4-one] | 331
CCCCC1=N/C(=C\c2c[nH]c3nc(Cl)ccc23)C(=O)N1 [Example 65, (5Z)-2-butyl-5-[(6-chloro-1H-pyrrolo[2,3-b]pyridin-3-yl)methylidene]-3,5-dihydro-4H-imidazol-4-one] | 318 to 321
O=C1NC(=S)N/C1=C\c1c[nH]c2ncc(-c3ccccc3)cc12 [Example 16, (5Z)-5-[(5-phenyl-1H-pyrrolo[2,3-b]pyridin-3-yl)methylene]-2-thioxoimidazolidin-4-one] | 265 to 270
CCCCC1=N/C(=C\c2c[nH]c3ncc(Cl)cc23)C(=O)N1 [Example 64, (5Z)-2-butyl-5-[(5-chloro-1H-pyrrolo[2,3-b]pyridin-3-yl)methylidene]-3,5-dihydro-4H-imidazol-4-one] | 288 to 290
O=C1NC(NCC2CC2)=N/C1=C\c1c[nH]c2ncc(C(F)(F)F)cc12 [Example 48, (5Z)-2-[(cyclopropylmethyl)amino]-5-{[5-(trifluoromethyl)-1H-pyrrolo[2,3-b]pyridin-3-yl]methylidene}-3,5-dihydro-4H-imidazol-4-one] | 350
CN1CCN(C2=N/C(=C\c3c[nH]c4ncc(-c5ccccc5)cc34)C(=O)N2)CC1 [Example 41, (5Z)-2-(4-methylpiperazin-1-yl)-5-[(5-phenyl-1H-pyrrolo[2,3-b]pyridin-3-yl)methylidene]-3,5-dihydro-4H-imidazol-4-one] | 304
O=C1NC(N2CCCCC2)=N/C1=C\c1c[nH]c2ncc(-c3ccccc3)cc12 [Example 40, (5Z)-5-[(5-phenyl-1H-pyrrolo[2,3-b]pyridin-3-yl)methylidene]-2-piperidin-1-yl-3,5-dihydro-4H-imidazol-4-one] | 307
Cc1cnc2[nH]cc(/C=C3\N=C(N4CCN(c5ccccc5)CC4)NC3=O)c2c1 [Example 46, (5Z)-5-[(5-methyl-1H-pyrrolo[2,3-b]pyridin-3-yl)methylidene]-2-(4-phenylpiperazin-1-yl)-3,5-dihydro-4H-imidazol-4-one] | 331 to 332
Cc1cnc2[nH]cc(/C=C3\N=C(NCC4CC4)NC3=O)c2c1 [Example 43, (5Z)-2-[(cyclopropylmethyl)amino]-5-[(5-methyl-1H-pyrrolo[2,3-b]pyridin-3-yl)methylidene]-3,5-dihydro-4H-imidazol-4-one] | 319 to 320
O=C1NC(CC2CC2)=N/C1=C\c1c[nH]c2ncc(Cl)cc12 [Example 78, (5Z)-2-(cyclopropylmethyl)-5-(5-chloro-1H-pyrrolo[2,3-b]pyridin-3-ylmethylidene)-3,5-dihydro-4H-imidazol-4-one] | 295 to 296
O=C1NC(N2CCCCCC2)=N/C1=C\c1c[nH]c2ncc(C(F)(F)F)cc12 [Example 49, (5Z)-2-azepan-1-yl-5-{[5-(trifluoromethyl)-1H-pyrrolo[2,3-b]pyridin-3-yl]methylidene}-3,5-dihydro-4H-imidazol-4-one] | 340
CN1C(=O)/C(=C/c2c[nH]c3ncccc23)N=C1C1CCOCC1 [Example 72, (5Z)-5-[(1H-pyrrolo[2,3-b]pyridin-3-yl)methylidene]-3-methyl-2-(tetrahydro-2H-pyran-4-yl)-3,5-dihydro-4H-imidazol-4-one] | 283 to 285
Cc1cnc2[nH]cc(/C=C3\N=C(N4CCCCC4)NC3=O)c2c1 [Example 45, (5Z)-5-[(5-methyl-1H-pyrrolo[2,3-b]pyridin-3-yl)methylidene]-2-piperidin-1-yl-3,5-dihydro-4H-imidazol-4-one] | 320 to 321
